The test system of test [1] is Blumeria graminis f.sp. tritici. Briefly: Mixture with malonomicin, leaf disc, Blumeria graminis f.sp. tritici preventive. The format is in vivo. The conditions noted are these: foliar, 168 h, read-out: control of fungal growth. The source says:
(§1) A stock solution for oligosaccharide compound according to the present invention was produced in water plus 0.025% Tween®20. Malonomicin was produced according to Law et al, 2018 (Nature Catalys is | VOL 1 | DECEMBER 2018 | 977-984). A stock solution of malonomicin was produced in water plus 0.025% Tween®20.
(§2) Assays to test efficacy of mixtures of the compound of Formula (I) in combination with malonomicin on the control of fungal pathogens in a leaf disc assay were designed for two 24 well plates.
Table 11 and Table 12: Outline of 24 well testplate (3) and testplate (4) including concentration of compounds per well. The upper number in the cell indicates the oligosaccharide compound of the present invention concentration (ppm), the lower number malonomicin concentration (ppm). Column (1) holds a dilution series of compound of Formula (I), row (4-D) hold a dilution series of malonomicin. Well 4-D-(1) represents an untreated check. This design was applied for tests including Blumeria graminis f.sp. tritici (EPPO code: ERYSGT) with preventive spray timing and Parastagonospora nodorum (EPPO code: LEPTNO) with preventive spray timing.
(§3) A first set of master plates with 1× concentrated spray solution of the compound of Formula (I) stock diluted in water with concentrations according to Table 8, Table 9, Table 11 and Table 12, respectively, was prepared. Each well contained 0.025% Tween®20. Accordingly, a second set of master plates with 1× concentrated malonomicin stock diluted in water was prepared. Each well of the second set contained 0.025% Tween®20. Leaf segments placed on agar in 24 well plates are sprayed with 8 ul of solution from the master plate containing compound of Formula (I) and the leaf segments were let to dry, followed 2 hours later by 8 ul of solution from the master plate containing malonomicin. After second sprays have dried, leaf segments are infected with fungal spores to obtain a preventive application timing. Alternatively, leaf segments infected one day before spray of the compounds are used, resulting in a curative spray timing. In addition, several plates were produced where leaf segments were sprayed 2× in absence of test compound (with only Tween®20), representing the untreated check samples. For each leaf segment percent leaf coverage of disease symptoms was assessed. Percent leaf coverage reduction relative to the untreated check was calculated. Efficacy of the mixtures was tested in duplicate and on different fungal species. Reported efficacy values are the average of two replicate results.
Blumeria graminis f.sp. tritici (EPPO Code: ERYSGT) with Preventive Spray Timing
Wheat (cultivar Kanzler) leaf segments are placed on agar in multiwell plates (24-well format) and sprayed with test solutions (8 ul per well). After drying, the leaf disks are inoculated with spores of the fungus. After appropriate incubation the activity of a compound is assessed 7 dpi (days post inoculation) as preventive fungicidal activity.

The test system of another test is Puccinia recondita. Nature of the test: Mixture with malonomicin, leaf disc, Puccinia recondita curative. The format is in vivo. Particulars: foliar, 192 h, read-out: control of fungal growth.
Excerpt: An additional ingredient having pesticidal activity, for instance fungicidal activity may result in an unexpected synergistic activity. […] The action to be expected E for a given active ingredient combination obeys the so-called COLBY formula and can be calculated as follows (COLBY, S. R. “Calculating synergistic and antagonistic responses of herbicide combination”. Weeds, Vol. 15, pages 20-22; 1967): • ppm=milligrams of active ingredient (=a.i.) per liter of spray mixture • X=% action by active ingredient A) using p ppm of active ingredient • Y=% action by active ingredient B) using q ppm of active ingredient.
According to COLBY, the expected (additive) action of active ingredients A)+B) using p+q ppm of active ingredient is:
In mathematical terms, synergism corresponds to a positive value for the difference of (O-E). In the case of purely complementary addition of activities (expected activity), said difference (O-E) is zero. A negative value of said difference (O-E) signals a loss of activity compared to the expected activity.
as §1, §2
Table 8 and 9: Outline of 24 well testplate (1) and testplate (2) including concentration of compounds sprayed per well. The upper number in the cell indicates the oligosaccharide compound of the present invention concentration (ppm), the lower number malonomicin concentration (ppm). Column (1) holds a dilution series of compound of Formula (I), row (2-D) hold a dilution series of malonomicin. Well 2-D-(1) represents an untreated check. This design was applied for tests including Puccinia recondita (EPPO code: PUCCRE) with preventive and curative spray timing.
as §3
Puccinia recondita (EPPO Code: PUCCRE) with Curative Spray Timing.
Wheat (cultivar Kanzler) leaf segments are placed on agar in multiwell plates (24-well format). The leaf disks are then inoculated with a spore suspension of the fungus. One day after inoculation the test solution is sprayed (8 ul per well). After appropriate incubation the activity of a compound is assessed 8 dpi (days after inoculation) as curative fungicidal activity

The results in this text go back to US20260344665A1, “FUNGICIDAL COMPOUND” (priority 2022, published 2026).

With `CC(=O)NC1C(OCC(OC2OC(CO)C(O)C(O)C2O)C2OC(OC3C(O)C(CO)OC(OC4(CO)OC(C(O)CO)C(O)C4OC4OC(CO)C(O)C(O)C4O)C3O)C(O)C(O)C2OC2OC(C(O)CO)C(O)C(O)C2OC2OCC(OC(N)=O)C(O)C2O)OC(CO)C(O)C1O` (centres unmarked) [compound of Formula (I)], the inhibition of growth at 9.38 µg/mL in test [1] (Formula (I) 9.38 ppm solo) was 10%. Moreover, the inhibition of growth at 18.75 µg/mL in test [1] (Formula (I) 18.75 ppm solo) amounted to 0%. The inhibition of growth at 37.5 µg/mL in test [1] (Formula (I) 37.5 ppm solo) turned out to be 0%. The inhibition of growth at 75 µg/mL in test [1] (Formula (I) 75 ppm solo) amounted to 20%. In test [1] (Formula (I) 150 ppm solo), the inhibition of growth at 150 µg/mL worked out at 0%. In test [1] (Formula (I) 300 ppm solo), the inhibition of growth at 300 µg/mL was determined as 10%. Further, in test [1] (Formula (I) 600 ppm solo), the inhibition of growth at 600 µg/mL is 10%. Besides, in the test on Puccinia recondita (Formula (I) 3.13 ppm solo), the inhibition of growth at 3.13 µg/mL was found to be 0%. For the same compound, in the test on Puccinia recondita (Formula (I) 6.25 ppm solo), the inhibition of growth at 6.25 µg/mL was 0%. In the test on Puccinia recondita (Formula (I) 12.5 ppm solo), the inhibition of growth at 12.5 µg/mL came to 10%. In addition, in the test with Puccinia recondita (Formula (I) 25 ppm solo), the inhibition of growth at 25 µg/mL was 10%. Also, the inhibition of growth at 50 µg/mL in the test on Puccinia recondita (Formula (I) 50 ppm solo) was found to be 20%. The inhibition of growth at 100 µg/mL in the test on Puccinia recondita (Formula (I) 100 ppm solo) is 70%. In the test with Puccinia recondita (Formula (I) 200 ppm solo), the inhibition of growth at 200 µg/mL was determined as 80%.
